What was measured:
Assay in all cases: KINOMEscan
Assay type in all cases: binding
LKB1 = molecular target: T1, LKB1 (Homo sapiens, UniProt Q15831)
T1 construct: purchased Eurofins DiscoverX, LLC; host or cells: E. coli (BL21-derived, T7 phage) or HEK-293
T1 sequence (Q15831 1-433): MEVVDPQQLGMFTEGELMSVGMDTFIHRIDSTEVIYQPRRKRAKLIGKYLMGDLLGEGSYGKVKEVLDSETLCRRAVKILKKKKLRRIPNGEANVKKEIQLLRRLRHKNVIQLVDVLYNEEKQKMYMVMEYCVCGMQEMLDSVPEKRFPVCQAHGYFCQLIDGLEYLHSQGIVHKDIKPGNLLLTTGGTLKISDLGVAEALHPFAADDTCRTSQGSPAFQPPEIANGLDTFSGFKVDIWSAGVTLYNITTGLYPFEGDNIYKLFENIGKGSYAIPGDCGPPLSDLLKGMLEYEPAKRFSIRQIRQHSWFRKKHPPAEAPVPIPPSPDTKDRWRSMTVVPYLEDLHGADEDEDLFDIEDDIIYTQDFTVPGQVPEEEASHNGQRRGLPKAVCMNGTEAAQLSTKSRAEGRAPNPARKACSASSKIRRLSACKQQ

MEK1 = molecular target: T2, MEK1 (Homo sapiens, UniProt Q02750)
T2 construct: purchased Eurofins DiscoverX, LLC; host or cells: E. coli (BL21-derived, T7 phage) or HEK-293
T2 sequence (Q02750 whole entry): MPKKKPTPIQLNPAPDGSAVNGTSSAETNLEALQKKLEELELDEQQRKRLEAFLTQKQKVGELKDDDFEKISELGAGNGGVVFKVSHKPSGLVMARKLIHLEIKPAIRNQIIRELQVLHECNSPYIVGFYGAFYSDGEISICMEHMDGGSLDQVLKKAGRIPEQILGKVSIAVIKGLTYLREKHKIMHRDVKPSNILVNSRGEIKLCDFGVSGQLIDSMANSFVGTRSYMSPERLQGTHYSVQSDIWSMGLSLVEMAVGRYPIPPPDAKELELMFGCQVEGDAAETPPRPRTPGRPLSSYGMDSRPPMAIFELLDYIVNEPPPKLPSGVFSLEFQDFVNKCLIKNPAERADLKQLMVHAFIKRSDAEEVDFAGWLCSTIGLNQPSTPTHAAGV

MET = molecular target: T3, MET (Homo sapiens, UniProt P08581)
T3 construct: purchased Eurofins DiscoverX, LLC; host or cells: E. coli (BL21-derived, T7 phage) or HEK-293
T3 sequence (P08581 25-1390): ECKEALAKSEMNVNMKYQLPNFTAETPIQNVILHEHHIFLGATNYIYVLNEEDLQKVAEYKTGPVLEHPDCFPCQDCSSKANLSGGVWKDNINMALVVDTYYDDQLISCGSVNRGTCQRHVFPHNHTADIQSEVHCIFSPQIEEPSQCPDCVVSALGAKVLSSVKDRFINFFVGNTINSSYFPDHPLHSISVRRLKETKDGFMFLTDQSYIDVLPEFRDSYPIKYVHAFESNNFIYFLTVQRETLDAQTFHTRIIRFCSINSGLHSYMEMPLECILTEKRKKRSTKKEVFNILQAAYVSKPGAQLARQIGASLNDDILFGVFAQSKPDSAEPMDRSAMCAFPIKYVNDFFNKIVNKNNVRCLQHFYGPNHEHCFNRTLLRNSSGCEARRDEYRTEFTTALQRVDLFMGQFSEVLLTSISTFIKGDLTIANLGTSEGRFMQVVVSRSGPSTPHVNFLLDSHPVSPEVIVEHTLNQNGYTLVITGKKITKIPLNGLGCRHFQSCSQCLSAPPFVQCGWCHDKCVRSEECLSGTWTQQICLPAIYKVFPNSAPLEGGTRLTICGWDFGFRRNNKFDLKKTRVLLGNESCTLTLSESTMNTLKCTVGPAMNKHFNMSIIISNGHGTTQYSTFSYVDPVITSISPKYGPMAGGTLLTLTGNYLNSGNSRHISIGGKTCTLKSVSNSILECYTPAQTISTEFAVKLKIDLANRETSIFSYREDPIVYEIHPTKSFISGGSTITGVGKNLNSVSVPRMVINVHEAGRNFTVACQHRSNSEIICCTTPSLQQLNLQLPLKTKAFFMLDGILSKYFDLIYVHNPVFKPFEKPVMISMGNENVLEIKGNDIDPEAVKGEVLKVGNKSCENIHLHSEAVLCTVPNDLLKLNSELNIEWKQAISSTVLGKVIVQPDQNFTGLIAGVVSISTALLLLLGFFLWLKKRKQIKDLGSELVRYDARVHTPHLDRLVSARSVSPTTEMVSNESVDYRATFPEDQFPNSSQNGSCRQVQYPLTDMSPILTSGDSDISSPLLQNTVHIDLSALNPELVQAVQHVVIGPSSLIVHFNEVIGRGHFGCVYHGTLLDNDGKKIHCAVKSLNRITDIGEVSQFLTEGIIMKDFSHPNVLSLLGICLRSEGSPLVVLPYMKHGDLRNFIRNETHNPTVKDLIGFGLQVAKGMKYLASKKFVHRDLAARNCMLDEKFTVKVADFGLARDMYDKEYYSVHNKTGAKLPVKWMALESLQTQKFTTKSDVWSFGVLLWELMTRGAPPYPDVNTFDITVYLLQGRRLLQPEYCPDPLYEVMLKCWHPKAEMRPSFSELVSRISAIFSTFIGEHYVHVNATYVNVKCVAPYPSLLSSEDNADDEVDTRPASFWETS

MAP3K4 = molecular target: T4, MAP3K4 (Homo sapiens, UniProt Q9Y6R4)
T4 construct: purchased Eurofins DiscoverX, LLC; host or cells: E. coli (BL21-derived, T7 phage) or HEK-293

KIT(V559D,T670I) = molecular target: T5, KIT(V559D,T670I) (Homo sapiens, UniProt P10721, T670I/V559D)
T5 construct: purchased Eurofins DiscoverX, LLC; host or cells: E. coli (BL21-derived, T7 phage) or HEK-293
T5 sequence (P10721 26-976 V559D/T670I): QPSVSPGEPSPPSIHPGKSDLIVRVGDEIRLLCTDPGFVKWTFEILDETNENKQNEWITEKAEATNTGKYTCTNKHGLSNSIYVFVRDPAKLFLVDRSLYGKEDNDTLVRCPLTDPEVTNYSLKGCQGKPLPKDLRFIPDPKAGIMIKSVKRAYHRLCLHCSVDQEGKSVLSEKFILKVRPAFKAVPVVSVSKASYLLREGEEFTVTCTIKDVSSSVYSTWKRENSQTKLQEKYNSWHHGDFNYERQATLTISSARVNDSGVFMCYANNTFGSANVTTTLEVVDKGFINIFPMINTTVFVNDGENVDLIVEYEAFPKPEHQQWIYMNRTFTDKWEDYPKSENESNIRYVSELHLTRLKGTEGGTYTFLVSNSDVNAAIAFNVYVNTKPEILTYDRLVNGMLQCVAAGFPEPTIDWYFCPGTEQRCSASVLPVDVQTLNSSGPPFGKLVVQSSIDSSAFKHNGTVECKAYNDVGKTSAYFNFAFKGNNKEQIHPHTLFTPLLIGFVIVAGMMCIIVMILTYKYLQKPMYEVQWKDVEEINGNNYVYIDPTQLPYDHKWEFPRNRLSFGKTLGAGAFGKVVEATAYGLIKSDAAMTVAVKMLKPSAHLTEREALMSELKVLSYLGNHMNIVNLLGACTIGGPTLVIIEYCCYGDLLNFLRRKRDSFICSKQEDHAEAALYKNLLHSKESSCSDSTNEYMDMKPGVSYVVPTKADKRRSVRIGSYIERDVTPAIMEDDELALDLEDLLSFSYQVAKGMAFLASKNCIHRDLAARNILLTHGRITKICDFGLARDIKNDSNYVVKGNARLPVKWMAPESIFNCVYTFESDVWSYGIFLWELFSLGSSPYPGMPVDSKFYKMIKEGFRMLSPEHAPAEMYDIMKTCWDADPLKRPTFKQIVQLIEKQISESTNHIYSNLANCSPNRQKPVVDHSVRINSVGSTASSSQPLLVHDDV

ERBB2 = molecular target: T6, ERBB2 (Homo sapiens, UniProt P04626)
T6 construct: purchased Eurofins DiscoverX, LLC; host or cells: E. coli (T7 phage) or HEK-293

PCTK1 = molecular target: T7, PCTK1 (Homo sapiens, UniProt Q00536)
T7 construct: purchased Eurofins DiscoverX, LLC; host or cells: E. coli BL21-derived host (T7 phage) or HEK-293
T7 sequence (Q00536 whole entry): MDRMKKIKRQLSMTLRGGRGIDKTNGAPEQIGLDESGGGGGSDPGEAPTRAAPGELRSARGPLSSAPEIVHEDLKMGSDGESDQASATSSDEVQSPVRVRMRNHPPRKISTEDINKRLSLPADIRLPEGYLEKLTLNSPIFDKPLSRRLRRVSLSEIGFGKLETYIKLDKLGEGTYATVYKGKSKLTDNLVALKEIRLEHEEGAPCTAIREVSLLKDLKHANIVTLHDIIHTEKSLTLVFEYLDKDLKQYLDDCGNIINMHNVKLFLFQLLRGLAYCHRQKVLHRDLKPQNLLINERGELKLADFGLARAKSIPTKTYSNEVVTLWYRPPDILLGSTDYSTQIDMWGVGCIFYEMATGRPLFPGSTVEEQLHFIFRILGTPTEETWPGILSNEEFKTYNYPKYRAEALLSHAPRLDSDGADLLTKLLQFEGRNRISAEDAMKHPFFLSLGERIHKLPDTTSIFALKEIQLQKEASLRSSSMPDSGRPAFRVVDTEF

ALK = molecular target: T8, ALK (Homo sapiens, UniProt Q9UM73)
T8 construct: purchased Eurofins DiscoverX, LLC; host or cells: E. coli BL21-derived (T7 phage) or HEK-293
T8 sequence (Q9UM73 19-1620): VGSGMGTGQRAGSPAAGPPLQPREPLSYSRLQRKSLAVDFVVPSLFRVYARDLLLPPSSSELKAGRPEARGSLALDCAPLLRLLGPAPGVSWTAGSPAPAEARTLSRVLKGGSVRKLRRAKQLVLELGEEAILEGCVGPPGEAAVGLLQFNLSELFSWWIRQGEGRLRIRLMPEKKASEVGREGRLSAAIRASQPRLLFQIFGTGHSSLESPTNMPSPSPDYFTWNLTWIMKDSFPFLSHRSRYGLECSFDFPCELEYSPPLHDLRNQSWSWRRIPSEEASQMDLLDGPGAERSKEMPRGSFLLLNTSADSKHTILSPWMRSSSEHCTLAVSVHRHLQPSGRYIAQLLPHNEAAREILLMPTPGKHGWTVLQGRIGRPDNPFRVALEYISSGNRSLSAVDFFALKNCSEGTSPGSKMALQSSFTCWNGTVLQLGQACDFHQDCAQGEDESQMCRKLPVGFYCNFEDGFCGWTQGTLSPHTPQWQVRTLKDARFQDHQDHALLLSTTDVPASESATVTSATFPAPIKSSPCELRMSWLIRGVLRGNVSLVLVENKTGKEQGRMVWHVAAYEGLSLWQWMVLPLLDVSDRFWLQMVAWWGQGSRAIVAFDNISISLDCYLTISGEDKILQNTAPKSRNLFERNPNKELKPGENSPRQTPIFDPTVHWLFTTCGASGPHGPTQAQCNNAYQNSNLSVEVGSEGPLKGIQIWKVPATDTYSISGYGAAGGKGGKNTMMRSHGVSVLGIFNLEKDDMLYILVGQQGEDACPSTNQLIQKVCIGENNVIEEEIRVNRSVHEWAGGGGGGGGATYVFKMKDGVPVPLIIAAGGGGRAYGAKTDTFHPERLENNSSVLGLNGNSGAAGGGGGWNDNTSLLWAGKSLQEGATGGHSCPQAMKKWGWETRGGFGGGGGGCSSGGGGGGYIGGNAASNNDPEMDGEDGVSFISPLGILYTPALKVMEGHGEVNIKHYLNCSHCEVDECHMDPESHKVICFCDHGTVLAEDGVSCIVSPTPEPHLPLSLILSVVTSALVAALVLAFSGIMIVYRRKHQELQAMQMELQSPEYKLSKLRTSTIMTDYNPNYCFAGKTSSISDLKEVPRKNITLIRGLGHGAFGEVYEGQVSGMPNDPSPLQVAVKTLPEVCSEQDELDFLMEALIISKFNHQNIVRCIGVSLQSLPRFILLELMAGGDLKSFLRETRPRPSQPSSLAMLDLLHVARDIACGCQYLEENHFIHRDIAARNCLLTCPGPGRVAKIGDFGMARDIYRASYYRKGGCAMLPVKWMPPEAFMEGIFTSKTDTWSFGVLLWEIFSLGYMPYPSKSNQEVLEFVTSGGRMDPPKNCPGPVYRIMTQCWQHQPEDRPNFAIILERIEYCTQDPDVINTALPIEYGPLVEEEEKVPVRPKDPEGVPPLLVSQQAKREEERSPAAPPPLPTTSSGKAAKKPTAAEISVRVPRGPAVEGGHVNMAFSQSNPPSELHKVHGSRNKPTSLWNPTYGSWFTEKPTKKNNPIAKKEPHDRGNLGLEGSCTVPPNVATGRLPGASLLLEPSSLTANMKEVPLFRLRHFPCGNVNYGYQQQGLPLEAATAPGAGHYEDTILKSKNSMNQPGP

p38δ = molecular target: T9, p38δ (Homo sapiens, UniProt O15264)
T9 construct: purchased Eurofins DiscoverX, LLC; host or cells: E. coli (BL21-derived, T7 phage) or HEK-293
T9 sequence (O15264 1-365): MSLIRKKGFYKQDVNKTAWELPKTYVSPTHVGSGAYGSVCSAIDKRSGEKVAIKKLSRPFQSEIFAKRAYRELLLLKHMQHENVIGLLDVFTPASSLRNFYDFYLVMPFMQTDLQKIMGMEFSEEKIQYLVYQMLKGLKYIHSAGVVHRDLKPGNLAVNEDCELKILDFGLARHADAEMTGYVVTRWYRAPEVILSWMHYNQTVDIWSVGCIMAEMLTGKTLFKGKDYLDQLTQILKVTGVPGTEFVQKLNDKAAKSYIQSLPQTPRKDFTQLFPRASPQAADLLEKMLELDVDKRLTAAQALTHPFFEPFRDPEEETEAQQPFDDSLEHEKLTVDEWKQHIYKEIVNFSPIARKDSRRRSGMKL

PRKCE = molecular target: T10, PRKCE (Homo sapiens, UniProt Q02156)
T10 construct: purchased Eurofins DiscoverX, LLC; host or cells: E. coli BL21-derived host (T7 phage) or HEK-293
T10 sequence (Q02156 1-737): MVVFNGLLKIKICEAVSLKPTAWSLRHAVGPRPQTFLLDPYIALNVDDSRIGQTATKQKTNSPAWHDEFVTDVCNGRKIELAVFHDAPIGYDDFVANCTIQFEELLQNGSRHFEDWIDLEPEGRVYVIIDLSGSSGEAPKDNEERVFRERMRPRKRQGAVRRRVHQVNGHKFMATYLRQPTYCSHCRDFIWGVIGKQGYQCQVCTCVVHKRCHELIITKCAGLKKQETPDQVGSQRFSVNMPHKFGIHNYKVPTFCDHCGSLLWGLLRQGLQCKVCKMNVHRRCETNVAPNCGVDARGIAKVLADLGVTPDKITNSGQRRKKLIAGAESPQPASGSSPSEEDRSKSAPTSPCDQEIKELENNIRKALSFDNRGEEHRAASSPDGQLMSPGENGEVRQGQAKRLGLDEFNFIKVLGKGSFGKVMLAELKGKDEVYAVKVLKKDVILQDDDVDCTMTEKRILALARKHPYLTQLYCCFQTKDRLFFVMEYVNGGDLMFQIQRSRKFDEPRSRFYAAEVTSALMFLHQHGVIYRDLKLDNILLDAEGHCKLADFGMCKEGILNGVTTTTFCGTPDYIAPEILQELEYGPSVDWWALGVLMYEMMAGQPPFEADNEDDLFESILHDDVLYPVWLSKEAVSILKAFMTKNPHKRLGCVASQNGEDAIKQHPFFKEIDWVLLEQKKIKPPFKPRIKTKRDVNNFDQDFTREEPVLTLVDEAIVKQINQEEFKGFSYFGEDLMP

VEGFR2 = molecular target: T11, VEGFR2 (Homo sapiens, UniProt P35968)
T11 construct: purchased Eurofins DiscoverX, LLC; host or cells: E. coli BL21-derived host (T7 phage) or HEK-293

SMILES: CN(C)CCNC(=O)c1cc2c(cnn2CC2CCCCC2)cc1Cc1ccc(F)cc1F [Compound 95, 1-(Cyclohexylmethyl)-5-(2,4-difluorobenzyl)-N-(2-(dimethylamino)ethyl)-1H-indazole-6-carboxamide]
- RA @ 1000nM (LKB1): 100%
- RA @ 10000nM (LKB1): 86%
- RA @ 1000nM (MEK1): 98%
- RA @ 10000nM (MEK1): 100%
- RA @ 1000nM (MET): 100%
- RA @ 10000nM (MET): 100%
- RA @ 1000nM (MAP3K4): 100%
- RA @ 10000nM (MAP3K4): 60%
- RA @ 1000nM (KIT(V559D,T670I)): 47%
- RA @ 10000nM (KIT(V559D,T670I)): 94%
- RA @ 1000nM (ERBB2): 84%
- RA @ 10000nM (ERBB2): 78%
- RA @ 1000nM (PCTK1): 87%
- RA @ 10000nM (PCTK1): 79%
- RA @ 1000nM (ALK): 62%
- RA @ 10000nM (ALK): 92%
- RA @ 1000nM (p38δ): 100%
- RA @ 10000nM (p38δ): 100%
- RA @ 1000nM (PRKCE): 79%
- RA @ 10000nM (PRKCE): 76%
- RA @ 1000nM (VEGFR2): 100%
- RA @ 10000nM (VEGFR2): 100%

SMILES: CC(C)Cn1ncc2cc(Cc3ccc(F)cc3F)c(C(=O)NCCN(C)C)cc21 [Compound 94, 5-(2,4-Difluorobenzyl)-N-(2-(dimethylamino)ethyl)-1-isobutyl-1H-indazole-6-carboxamide]
- RA @ 1000nM (LKB1): 100%
- RA @ 10000nM (LKB1): 96%
- RA @ 1000nM (MEK1): 98%
- RA @ 10000nM (MEK1): 74%
- RA @ 1000nM (MET): 96%
- RA @ 10000nM (MET): 100%
- RA @ 1000nM (MAP3K4): 49%
- RA @ 10000nM (MAP3K4): 100%
- RA @ 1000nM (KIT(V559D,T670I)): 100%
- RA @ 10000nM (KIT(V559D,T670I)): 100%
- RA @ 1000nM (ERBB2): 74%
- RA @ 10000nM (ERBB2): 81%
- RA @ 1000nM (PCTK1): 96%
- RA @ 10000nM (PCTK1): 92%
- RA @ 1000nM (ALK): 93%
- RA @ 10000nM (ALK): 83%
- RA @ 1000nM (p38δ): 97%
- RA @ 10000nM (p38δ): 100%
- RA @ 1000nM (PRKCE): 80%
- RA @ 10000nM (PRKCE): 80%
- RA @ 1000nM (VEGFR2): 100%
- RA @ 10000nM (VEGFR2): 100%
